Experimental data taken from patent US4839357A, “Renin inhibitors containing phenylalanyl-histidine replacements” (Merck & Co., Inc., priority 1987, dated 1989).
Square brackets hold non-standard residues; d marks the D form. Peptide text beside a SMILES is read from it. * marks the point of attachment. Sta = CC(C)C[C@H](N)[C@@H](O)CC(=O)O; Isovaleryl = CC(C)CC(=O)*

Columns and labels:
[1] = system: hog renin; conditions: after the injection of hog renin into nephrectomized rats; cited from earlier work
[2] = biological target: T1, renin (Homo sapiens, UniProt P00797); assay: renin inhibition (IC50 printed in the synthesis text, no method described); type: biochemical
T1 sequence (P00797 67-406): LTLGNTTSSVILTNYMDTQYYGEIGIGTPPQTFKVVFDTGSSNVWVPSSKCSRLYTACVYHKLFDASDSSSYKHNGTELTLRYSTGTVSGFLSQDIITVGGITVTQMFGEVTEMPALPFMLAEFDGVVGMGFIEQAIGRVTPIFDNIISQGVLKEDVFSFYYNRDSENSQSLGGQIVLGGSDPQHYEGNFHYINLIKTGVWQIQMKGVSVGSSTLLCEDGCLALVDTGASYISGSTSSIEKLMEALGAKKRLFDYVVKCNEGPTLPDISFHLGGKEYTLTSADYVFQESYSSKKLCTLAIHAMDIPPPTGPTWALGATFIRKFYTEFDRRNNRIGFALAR

| Compound | blood pressure in vivo [1] | IC50 [2] |
| --- | --- | --- |
| CC(C)CC(=O)N[C@H](C(=O)N[C@H](C(=O)N[C@@H](CC(C)C)[C@@H](O)CC(=O)N[C@@H](C)C(=O)N[C@@H](CC(C)C)[C@@H](O)CC(=O)O)C(C)C)C(C)C [pepstatin] (Isovaleryl-VV[Sta]A[Sta]-OH) | reduces blood pressure |  |
| CC(C)S(=O)(=O)C[C@@H](CCc1ccccc1)C(=O)N[C@@H](Cc1c[nH]cn1)C(=O)N[C@@H](CC1CCCCC1)[C@@H](O)CC(=O)NC1CN2CCC1CC2 (stereo partly drawn) [3-benzyl-2-(S)-(isopropylsulfonylmethyl)propionyl-L-histidyl-(3S,4S)-4-amino-5-cyclohexyl 3-hydroxypentanoyl 3-quinuclidinyl amide] |  | 11 nM |
